Several values for one entry are separate records, joined by “and”; a condition that tells them apart may be missing. Identical values can stand only once. Like-named read-outs stand apart in the source and are kept apart here.
Target: T1, human histamine H3 receptor (Homo sapiens, UniProt Q9Y5N1)
T1 construct: expressed in transfected cells; host or cells: CHO K1 cells carrying pSwitch, transfected with pGeneH3 and induced with mifepristone; membranes of clone 3H3
Experiment: Histamine H3 functional antagonist assay
Assay type: biochemical
Procedure: A membrane preparation containing histamine H3 receptors may be prepared in accordance with the following procedures:
Ligated DNA was transformed into competent DH5α E. coli host bacterial cells and plated onto Luria Broth (LB) agar containing Zeocin™ (an antibiotic which allows the selection of cells expressing the sh ble gene which is present on pGene and pSwitch) at 50 μg ml^−1. Colonies containing the re-ligated plasmid were identified by restriction analysis. DNA for transfection into mammalian cells was prepared from 250 ml cultures of the host bacterium containing the pGeneH3 plasmid and isolated using a DNA preparation kit (Qiagen Midi-Prep) as per manufacturers guidelines (Qiagen).
CHO K1 cells previously transfected with the pSwitch regulatory plasmid (InVitrogen) were seeded at 2×10e6 cells per T75 flask in Complete Medium, containing Hams F12 (GIBCOBRL, Life Technologies) medium supplemented with 10% v/v dialysed foetal bovine serum, L-glutamine, and hygromycin (100 μg ml^−1), 24 hours prior to use. Plasmid DNA was transfected into the cells using Lipofectamine plus according to the manufacturers guidelines (InVitrogen). 48 hours post transfection cells were placed into complete medium supplemented with 500 μg ml^−1 Zeocin™.
10-14 days post selection 10 nM Mifepristone (InVitrogen), was added to the culture medium to induce the expression of the receptor. […] Approximately 1×10e7 cells were examined for receptor expression by staining with a rabbit polyclonal antibody, 4a, raised against the N-terminal domain of the histamine H3 receptor, incubated on ice for 60 minutes, followed by two washes in sorting medium. […] Following two further washes with Sorting Medium, cells were filtered through a 50 μm Filcon™ (BD Biosciences) and then analysed on a FACS Vantage SE Flow Cytometer fitted with an Automatic Cell Deposition Unit. […] Positively stained cells were sorted as single cells into 96-well plates, containing Complete Medium containing 500 μg ml^−1 Zeocin™ and allowed to expand before reanalysis for receptor expression via antibody and ligand binding studies.
All steps of the protocol are carried out at 4° C. and with pre-cooled reagents. […] The cells are then homogenised by 2×15 second bursts in a 1 litre glass Waring blender, followed by centrifugation at 500 g for 20 minutes. The supernatant is then spun at 48,000 g for 30 minutes. […]
The plate is then incubated on a shaker at room temperature for 30 minutes followed by centrifugation for 5 minutes at 1500 rpm. The plate is read between 3 and 6 hours after completion of centrifuge run in a Wallac Microbeta counter on a 1 minute normalised tritium count protocol. Data is analysed using a 4-parameter logistic equation. […]

[1] = membranes of CHO K1 cells expressing human histamine H3, [35S]GTPγS SPA, histamine 0.3 μM, read-out: antagonism (pKb) (converted)

T1 sequence (Q9Y5N1 whole entry): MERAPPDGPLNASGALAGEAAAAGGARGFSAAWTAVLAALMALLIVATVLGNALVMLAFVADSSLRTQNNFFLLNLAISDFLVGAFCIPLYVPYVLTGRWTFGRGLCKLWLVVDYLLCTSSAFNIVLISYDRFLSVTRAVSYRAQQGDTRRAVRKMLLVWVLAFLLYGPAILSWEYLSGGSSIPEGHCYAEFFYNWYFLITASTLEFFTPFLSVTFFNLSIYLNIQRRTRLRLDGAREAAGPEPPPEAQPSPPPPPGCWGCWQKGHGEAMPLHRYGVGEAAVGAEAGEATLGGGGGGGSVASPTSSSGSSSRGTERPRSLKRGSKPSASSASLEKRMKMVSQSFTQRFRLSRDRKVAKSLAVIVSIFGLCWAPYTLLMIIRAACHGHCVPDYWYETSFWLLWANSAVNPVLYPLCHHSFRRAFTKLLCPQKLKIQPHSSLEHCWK

Row | Kb [1] | SMILES | Kb
1 | – | c1ccc(COc2ccc3c(c2)CCN(C2CCC2)CC3)cc1 [Example 1, 7-Benzyloxy-3-cyclobutyl-2,3,4,5-tetrahydro-1H-benzo[d]azepine] | 0.0316 to 1 nM
2 | 0.0316 to 1 nM | O=C(N1CCOCC1)N1CCC(Oc2ccc3c(c2)CCN(C2CCC2)CC3)CC1 [Example 52] | –
3 | 0.0316 to 1 nM and < 0.316 nM | CNC(=O)c1ccc(Oc2ccc3c(c2)CCN(C2CCC2)CC3)nc1 [Example 121, 6-(3-Cyclobutyl-2,3,4,5-tetrahydro-1H-benzo[d]azepin-7-yloxy)-N-methyl-nicotinamide] | –
4 | 0.0316 to 1 nM | O=C1CCCN1c1ccc(Oc2ccc3c(c2)CCN(C2CCC2)CC3)nc1 [Example 217, 1-{6-[(3-Cyclobutyl-2,3,4,5-tetrahydro-1H-3-benzazepin-7-yl)oxy]-3-pyridinyl}-2-pyrrolidinone] | –

— patent US7704994B2, “Benzazepine derivatives for the treatment of neurological disorders” (Glaxo Group Limited, priority 2002, dated 2010)
